Legend:
Kv3.1 = biological target: T1, Kv3.1 (Homo sapiens, UniProt P48547); assay: cryo-EM structure of the complex ([…] Å); supported by TEVC of Kv3.[…] and binding-site mutants
T1 construct: gene KCNC1; Full-length human Kv3.1 (isoform A)
T1 sequence (P48547 1-511): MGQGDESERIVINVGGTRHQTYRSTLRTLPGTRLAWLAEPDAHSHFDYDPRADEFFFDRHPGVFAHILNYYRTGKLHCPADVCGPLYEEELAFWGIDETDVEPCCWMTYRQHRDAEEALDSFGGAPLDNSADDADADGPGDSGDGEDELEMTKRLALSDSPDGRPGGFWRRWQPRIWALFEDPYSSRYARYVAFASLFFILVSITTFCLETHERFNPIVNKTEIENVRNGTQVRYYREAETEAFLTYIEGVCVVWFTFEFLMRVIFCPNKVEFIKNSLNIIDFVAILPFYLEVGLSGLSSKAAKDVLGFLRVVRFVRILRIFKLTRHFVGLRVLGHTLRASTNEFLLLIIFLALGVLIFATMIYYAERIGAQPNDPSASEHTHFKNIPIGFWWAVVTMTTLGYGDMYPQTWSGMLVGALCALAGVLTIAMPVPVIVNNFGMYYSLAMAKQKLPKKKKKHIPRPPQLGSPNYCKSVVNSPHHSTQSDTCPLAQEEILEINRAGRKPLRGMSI

Kv3.2 = biological target: T2, Kv3.2 (Homo sapiens, UniProt Q96PR1); assay: TEVC in Xenopus oocytes, concentration dependence of ΔV0.[…]; type: cell-based
T2 construct: gene KCNC2
T2 sequence (Q96PR1 1-638): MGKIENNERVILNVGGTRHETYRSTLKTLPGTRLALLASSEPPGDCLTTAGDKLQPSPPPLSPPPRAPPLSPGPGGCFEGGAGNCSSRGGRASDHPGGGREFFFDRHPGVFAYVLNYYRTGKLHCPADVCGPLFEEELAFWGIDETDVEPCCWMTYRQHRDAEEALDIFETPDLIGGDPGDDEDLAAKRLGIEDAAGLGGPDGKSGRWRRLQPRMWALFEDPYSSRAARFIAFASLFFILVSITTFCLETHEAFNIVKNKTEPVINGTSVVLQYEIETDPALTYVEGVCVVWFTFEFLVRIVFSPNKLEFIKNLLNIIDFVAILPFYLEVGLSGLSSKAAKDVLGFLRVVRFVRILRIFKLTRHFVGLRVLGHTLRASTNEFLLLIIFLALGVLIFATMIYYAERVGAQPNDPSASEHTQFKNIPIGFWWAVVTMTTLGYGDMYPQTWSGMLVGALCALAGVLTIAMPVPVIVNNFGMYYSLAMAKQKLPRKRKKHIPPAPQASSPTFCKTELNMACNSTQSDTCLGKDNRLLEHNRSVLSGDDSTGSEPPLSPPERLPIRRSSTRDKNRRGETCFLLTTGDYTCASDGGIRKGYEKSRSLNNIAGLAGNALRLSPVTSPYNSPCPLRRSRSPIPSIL

EC50 (Kv3.2): 3.2 µM
SMILES: CC[C@H]1NC(=O)N(c2ccc(Oc3cccc4c3C3(CC3)CO4)nc2)C1=O [AUT5, (5 R)-5-ethyl-3-[6-(spiro[1-benzofuran-3,1’-cyclopropan]-4-yloxy)-3-pyridinyl]-2,4-imidazolidinedione]
cryo-EM structure of the complex (2.5 Å); supported by TEVC of Kv3.1 and binding (Kv3.1): A non-protein in the electron density map consistent with AUT5 is found in a cavity between S4 and S5 helices
